Measured values reported in ChEMBL document CHEMBL1136398, “Non-peptide alphavbeta3 antagonists. Part 6: design and synthesis of alphavbeta3 antagonists containing a pyridone or pyrazinone central scaffold” (Bioorg Med Chem Lett, 2003).

Assays:
Integrin alpha-V/beta-3 [1] = molecular target: T1, Integrin alpha-V/beta-3 (Homo sapiens, UniProt P05106+P06756); assay: Inhibitory activity against human alpha V beta3 receptor using SPAV3 assay; type: protein-complex assay
[2] = Partition coefficient (logP); type: physicochemical; conditions: octanol/water
Integrin alpha-V/beta-3 [3] = molecular target: T1, Integrin alpha-V/beta-3; assay: Inhibitory activity against human alphaV-beta3 integrin using SPAV3 assay; type: protein-complex assay
[4] = Half-life in vivo in dog by intravenous administration at a dose of 0.2 mg/kg; type: ADME, organism-based, Canis lupus familiaris; set-up: dose 0.2 mg/kg, route intravenous
[5] = Oral bioavailability in dog (dose 0.2 mg/kg i.v.); type: ADME, organism-based, Canis lupus familiaris; conditions: in vivo
[6] = Half-life in vivo in dog by intravenous administration at a dose of 1 mg/kg; type: ADME, organism-based, Canis lupus familiaris; set-up: dose 1 mg/kg, route intravenous
Canis familiaris [7] = assay: Plasma clearance in vivo in dog by intravenous administration at a dose of 0.2 mg/kg; type: ADME, organism-based, Canis lupus familiaris; set-up: dose 0.2 mg/kg, route intravenous
[8] = Oral bioavailability in dog (dose 1 mg/kg i.v.); type: ADME, organism-based, Canis lupus familiaris; conditions: in vivo
Canis familiaris [9] = assay: Plasma clearance in vivo in dog by intravenous administration at a dose of 1 mg/kg; type: ADME, organism-based, Canis lupus familiaris; set-up: dose 1 mg/kg, route intravenous
[10] = Protein binding in human plasma; type: ADME, cell-free; conditions: read-out: PB (converted)

T1 sequence (P05106 27-788 limits assumed): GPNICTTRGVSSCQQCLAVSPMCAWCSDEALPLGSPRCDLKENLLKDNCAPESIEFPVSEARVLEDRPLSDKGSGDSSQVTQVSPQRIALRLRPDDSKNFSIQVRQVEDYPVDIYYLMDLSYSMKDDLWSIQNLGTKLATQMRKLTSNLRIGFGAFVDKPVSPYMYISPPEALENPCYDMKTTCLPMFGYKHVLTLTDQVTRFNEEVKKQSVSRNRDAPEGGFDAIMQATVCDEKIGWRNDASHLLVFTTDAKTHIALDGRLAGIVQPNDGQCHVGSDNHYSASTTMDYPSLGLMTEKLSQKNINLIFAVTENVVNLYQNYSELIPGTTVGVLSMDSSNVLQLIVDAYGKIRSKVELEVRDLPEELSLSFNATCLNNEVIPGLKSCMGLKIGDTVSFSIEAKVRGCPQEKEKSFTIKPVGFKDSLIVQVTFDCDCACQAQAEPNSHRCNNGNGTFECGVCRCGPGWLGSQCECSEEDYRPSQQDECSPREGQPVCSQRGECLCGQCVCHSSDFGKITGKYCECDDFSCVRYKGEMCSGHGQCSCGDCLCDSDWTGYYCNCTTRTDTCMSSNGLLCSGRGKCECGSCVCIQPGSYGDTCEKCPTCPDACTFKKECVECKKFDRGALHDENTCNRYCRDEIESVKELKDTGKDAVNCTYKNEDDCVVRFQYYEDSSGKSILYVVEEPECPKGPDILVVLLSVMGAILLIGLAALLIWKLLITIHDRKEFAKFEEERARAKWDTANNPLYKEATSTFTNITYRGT
T1 sequence (P06756 31-889 limits assumed): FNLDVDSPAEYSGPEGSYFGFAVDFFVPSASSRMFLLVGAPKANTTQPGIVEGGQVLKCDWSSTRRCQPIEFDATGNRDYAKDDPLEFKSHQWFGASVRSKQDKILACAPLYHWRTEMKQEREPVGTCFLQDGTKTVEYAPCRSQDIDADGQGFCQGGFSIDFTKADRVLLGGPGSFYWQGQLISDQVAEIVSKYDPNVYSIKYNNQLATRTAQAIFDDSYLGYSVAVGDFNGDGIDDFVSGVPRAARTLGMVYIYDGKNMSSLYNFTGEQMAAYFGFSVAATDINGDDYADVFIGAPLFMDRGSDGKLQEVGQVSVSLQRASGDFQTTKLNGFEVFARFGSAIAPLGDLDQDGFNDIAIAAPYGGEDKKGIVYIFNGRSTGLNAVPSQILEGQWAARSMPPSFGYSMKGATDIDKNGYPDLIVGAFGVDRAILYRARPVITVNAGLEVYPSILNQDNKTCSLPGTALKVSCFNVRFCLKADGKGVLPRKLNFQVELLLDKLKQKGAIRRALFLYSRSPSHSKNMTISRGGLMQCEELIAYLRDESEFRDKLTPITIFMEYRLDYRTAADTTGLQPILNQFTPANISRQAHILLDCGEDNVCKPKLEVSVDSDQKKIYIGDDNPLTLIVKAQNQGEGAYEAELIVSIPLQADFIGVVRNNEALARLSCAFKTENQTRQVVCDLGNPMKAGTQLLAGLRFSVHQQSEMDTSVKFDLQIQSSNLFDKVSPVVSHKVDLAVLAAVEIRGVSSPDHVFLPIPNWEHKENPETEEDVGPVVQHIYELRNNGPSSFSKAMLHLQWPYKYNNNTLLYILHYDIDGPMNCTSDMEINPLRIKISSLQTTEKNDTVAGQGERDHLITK
T1 sequence (P06756 891-1048 limits assumed): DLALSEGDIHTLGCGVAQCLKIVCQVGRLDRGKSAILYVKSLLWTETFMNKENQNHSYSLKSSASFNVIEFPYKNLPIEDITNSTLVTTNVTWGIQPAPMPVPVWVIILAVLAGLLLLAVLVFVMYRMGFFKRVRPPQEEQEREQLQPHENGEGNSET

Compound	IC50 (Integrin alpha-V/beta-3 [1])	logP [2]	IC50 (Integrin alpha-V/beta-3 [3])	half-life [4]	bioavailability [5]	half-life [6]	Cl (Canis familiaris [7])	bioavailability [8]	Cl (Canis familiaris [9])	fraction unbound [10]
O=C(O)C[C@H](NC(=O)Cn1c(C2CC2)c(Cl)nc(NCc2ccc3c(n2)NCCC3)c1=O)c1cnc2ccccc2c1	0.7 nM	1.12	–	–	–	–	–	–	–	–
O=C(O)C[C@H](NC(=O)Cn1c(C2CC2)cnc(NCc2ccc3c(n2)NCCC3)c1=O)c1ccc2c(c1)OCO2	0.2 nM	-0.1	–	1.1 h	0.3%	1.1 h	26 mL/min/kg	0.3%	26 mL/min/kg	0.025
O=C(O)C[C@H](NC(=O)Cc1ccc(CCc2ccc3c(n2)NCCC3)s1)c1cccnc1	–	–	246 nM	–	–	–	–	–	–	–
O=C(O)C[C@H](NC(=O)Cn1c(C2CC2)c(Cl)nc(NCc2ccc3c(n2)NCCC3)c1=O)c1ccc2c(c1)OCC2	0.2 nM	0.9	–	–	–	–	–	–	–	–
O=C(O)C[C@H](NC(=O)Cn1c(C2CC2)c(Cl)nc(NCc2ccc3c(n2)NCCC3)c1=O)c1cccnc1	0.3 nM	-0.26	–	–	–	–	–	–	–	–
O=C(O)C[C@H](NC(=O)Cn1c(C2CC2)ccc(NCc2ccc3c(n2)NCCC3)c1=O)c1ccc2c(c1)OCC2	–	0.28	0.2 nM	–	–	–	–	–	–	–
O=C(O)C[C@H](NC(=O)Cn1c(C2CC2)c(Cl)nc(NCc2ccc3c(n2)NCCC3)c1=O)c1cccc(F)c1	2.7 nM	1.1	–	–	–	–	–	–	–	–
O=C(O)C[C@H](NC(=O)Cn1c(-c2ccccc2)c(Cl)nc(NCc2ccc3c(n2)NCCC3)c1=O)c1cccc(F)c1	112 nM	1.6	–	–	–	–	–	–	–	–
O=C(O)C[C@H](NC(=O)Cc1cccc(CCc2ccc3c(n2)NCCC3)c1)c1cccnc1	21 nM	–	–	–	–	–	–	–	–	–
O=C(O)C[C@H](NC(=O)Cn1c(C2CC2)ccc(NCc2ccc3c(n2)NCCC3)c1=O)c1cccc(F)c1	–	0.54	0.8 nM	0.8 h	3%	0.8 h	20 mL/min/kg	3%	20 mL/min/kg	0.006
O=C(O)C[C@H](NC(=O)Cn1c(C2CC2)cnc(NCc2ccc3c(n2)NCCC3)c1=O)c1cccc(F)c1	1.4 nM	0.15	–	1.1 h	0.3%	1.1 h	26 mL/min/kg	0.3%	26 mL/min/kg	0.025
C#C[C@H](CC(=O)O)NC(=O)Cn1c(C2CC2)ccc(NCc2ccc3c(n2)NCCC3)c1=O	–	-0.97	9 nM	–	–	–	–	–	–	–
Cc1c(Cl)nc(NCc2ccc3c(n2)NCCC3)c(=O)n1CC(=O)N[C@@H](CC(=O)O)c1cccc(F)c1	2.1 nM	0.61	–	2.1 h	–	2.1 h	28 mL/min/kg	–	28 mL/min/kg	0.015
O=C(O)C[C@H](NC(=O)CN1CC[C@H](CCc2ccc3c(n2)NCCC3)C1=O)c1cccnc1	0.4 nM	–	–	1 h	–	1 h	–	–	–	0.446
CCc1c(Cl)nc(NCc2ccc3c(n2)NCCC3)c(=O)n1CC(=O)N[C@@H](CC(=O)O)c1cccc(F)c1	9.3 nM	1.3	–	–	–	–	–	–	–	–
CCc1cnc(NCc2ccc3c(n2)NCCC3)c(=O)n1CC(=O)N[C@@H](CC(=O)O)c1cccc(F)c1	1.9 nM	-0.47	–	1.4 h	4.3%	1.4 h	22 mL/min/kg	4.3%	22 mL/min/kg	0.028

The remaining lines, values ahead:

IC50 (Integrin alpha-V/beta-3 [1])	logP [2]	IC50 (Integrin alpha-V/beta-3 [3])	half-life [4]	bioavailability [5]	half-life [6]	Cl (Canis familiaris [7])	bioavailability [8]	Cl (Canis familiaris [9])	fraction unbound [10]	Compound
–	–	0.8 nM	–	–	–	–	–	–	–	Cc1cnc(NCc2ccc3c(n2)NCCC3)c(=O)n1CC(=O)N[C@@H](CC(=O)O)c1cccnc1
–	-0.48	1.4 nM	–	–	–	–	–	–	–	CCCc1ccc(NCc2ccc3c(n2)NCCC3)c(=O)n1CC(=O)N[C@@H](CC(=O)O)c1cccnc1
–	-1.46	1 nM	0.8 h	–	0.8 h	21 mL/min/kg	–	21 mL/min/kg	0.088	Cc1ccc(NCc2ccc3c(n2)NCCC3)c(=O)n1CC(=O)N[C@@H](CC(=O)O)c1cccnc1
1.1 nM	-0.31	–	–	–	–	–	–	–	–	Cc1cnc(NCc2ccc3c(n2)NCCC3)c(=O)n1CC(=O)N[C@@H](CC(=O)O)c1cccc(F)c1
0.2 nM	0.25	–	–	–	–	–	–	–	–	O=C(O)C[C@H](NC(=O)Cn1c(C2CC2)cnc(NCc2ccc3c(n2)NCCC3)c1=O)c1cccnc1
–	-0.8	0.2 nM	–	–	–	–	–	–	–	O=C(O)C[C@H](NC(=O)Cn1c(C2CC2)ccc(NCc2ccc3c(n2)NCCC3)c1=O)c1cccnc1
–	1.55	1.4 nM	–	–	–	–	–	–	–	O=C(O)C[C@H](NC(=O)Cn1cccc(NCc2ccc3c(n2)NCCC3)c1=O)c1cccnc1
